≈ marks a conversion by molar mass, not a printed value. Read-outs that look alike come from different tables or passages of the source.
Legend:
[1] = system: Candida albicans; assay: in vitro antifungal susceptibility testing (MIC, MFC; broth macrodilution), Tables 1-7; format: cell-based; details: for MIC: read-out: MIC80 (Minimum inhibitory concentration 80%); for MFC: three or fewer colonies, read-out: MFC (Minimum fungicidal concentration)
Description: (§1) The fungi that were employed included two reference strains, C. neoformans var. neoformans H99 and C. albicans A39 and the following clinical isolates: (1) two strains of fluconazole-resistant C. neoformans var. neoformans (135.95 and 114.96); (2) two strains of C. neoformans var. gattii (119.95 and 114.95); (3) two strains of fluconazole-resistant C. albicans (102.96 and 103.96); and (4) one strain each of Torulopsis glabrata (142.91), Candida parapsilosis (111.96), Candida krusei (132.91), C. tropicalis (110.96), Candida lusitaniae (111.92), Fusarium solani (152.89), Aspergillus fumigatus (168.95), and Aspergillus flavus (112.96). Antifungal susceptibility testing was performed using an RPMI-1640 medium (Sigma Chemical Co., St. Louis, Mo.) with glutamine, without sodium bicarbonate, and buffered at pH 7.0 with 0.165 M morpholine-propanesulfonic acid (MOPS).
(§2) In vitro susceptibility testing in the form of Minimum Inhibitory Concentration (MIC) experiments were performed using the broth macrodilution method according to the recommendations of the National Committee for Clinical Laboratory Standards (see 1995 manual). The only difference compared to the standardized procedure was the choice of drug dilutions ranging from 100 to 0.09 μg/ml. Briefly, this procedure specifies an inoculum grown at 35° C. and adjusted to a concentration of 0.5-2.5×10^3 CFU/ml with an incubation of the test performed at 35° C. and reading at 48 hours for all yeasts except for C. neoformans which is interpreted at 72 hr.
(§3) Minimum Fungicidal Concentration (MFC) experiments were adapted from a method by McGinnis (McGinnis, M. R., (1980) "Susceptibility testing and bioassay procedure", p. 431, Academic Press, Inc., New York). Briefly, 10 μl aliquots from tubes with growth inhibition were plated onto Sabouraud agar plates.
(§4) The fungi that were employed included two quality control reference strains, C. neoformans var. neoformansH99 and C. albicans A39 and the following clinical isolates: (1) four strains of C. neoformans var. neoformans (167.95; 135.95; 114.96; and 133.95) of which three were fluconazole-resistant>64 μg/ml (135.95; 114.96; and 133.95); (2) two strains of C. neoformans var. gattii (119.95 and 114.95); (3) two strains of fluconazole-resistant>64 μg/ml C. albicans (102.96 and 103.96); and (4) one strain each of C. glabrata (142.91), Candida parapsilosis (111.96), Candida krusei (132.91), C. tropicalis (110.96), Candida lusitaniae (111.92), Fusarium solani (152.89), Aspergillus fumigatus (168.95), Rhizopus arrhizus (117.89), Paecilomyces lilacinus (137.90), and Aspergillus flavus (112.96). Antifungal susceptibility testing was performed using an RPMI-1640 medium (Sigma Chemical Co., St. Louis, Mo.) with glutamine, without sodium bicarbonate, and buffered at pH 7.0 with 0.165 M morpholinepropanesulfonic acid (MOPS).
as §3, with “p.431,” for “p. 431,”

[2] = system: Cryptococcus neoformans; assay: as above; format: cell-based; details: for MIC: read-out: MIC80 (Minimum inhibitory concentration 80%); for MFC: read-out: MFC (Minimum fungicidal concentration)
Description: as §1, §2, §3, §4
as §3, with “p.431,” for “p. 431,”

[3] = Tables 2-7, three or fewer colonies
[4] = Table 1, three or fewer colonies

Compound | MIC ([1]; 48 h) [mg/L] | MIC ([2]; 72 h) [mg/L] | MIC ([1]; 35° C., reading at 48 hours) [mg/L] | MFC [1] [mg/L] | MIC ([2]; 35° C., 72 hr) [mg/L] | MFC [2, 3] [mg/L] | MFC [2, 4] [mg/L]
N=C(N)c1ccc2nc(Cc3nc4ccc(C(=N)N)cc4[nH]3)[nH]c2c1 [Compound 28] | > 100 | > 100 | – | – | – | – | –
CCC(CC)NC(=N)c1ccc(-c2ccc(-c3ccc(C(=N)NC(CC)CC)cc3)o2)cc1 [Compound 26] | – | – | 100 (≈ 225 µM) | 100 (≈ 225 µM) | 12.5 (≈ 28.1 µM) | 12.5 (≈ 28.1 µM) | –
N=C(N)c1ccc(OCCCCOc2ccc(-c3nc4ccc(C(=N)N)cc4[nH]3)cc2)cc1 [Compound 65] | – | – | 0.39 (≈ 0.881 µM) | 3.12 (≈ 7.05 µM) | ≤ 0.09 | 1.56 (≈ 3.53 µM) | –
N=C(N)c1ccc(OCCOc2ccc(C(=N)N)cc2)cc1 [Compound 1] | – | – | 3.12 (≈ 10.5 µM) | 100 (≈ 335 µM) | > 100 | – | –
CC(C)CNC(=N)c1ccc(-c2ccc(-c3ccc(C(=N)NCC(C)C)cc3)o2)cc1 [Compound 27] | – | – | 12.5 (≈ 30 µM) | – | 3.12 (≈ 7.49 µM) | 12.5 (≈ 30 µM) | –
N=C(N)c1ccc(OCCCCOc2ccc(C(=N)N)cc2N)c(N)c1 [Compound 13] | – | – | 6.25 (≈ 17.5 µM) | – | 12.5 (≈ 35.1 µM) | – | 50 (≈ 140 µM)
N=C(N)c1ccc(OCCC(O)CCOc2ccc(C(=N)N)cc2)cc1 (centres unmarked) [Compound 22] | – | – | 12.5 (≈ 35.1 µM) | 12.5 (≈ 35.1 µM) | 12.5 (≈ 35.1 µM) | 12.5 (≈ 35.1 µM) | –
N=C(N)c1ccc(-c2nc3ccc(C(=N)N)cc3[nH]2)cc1 [Compound 60] | – | – | 100 (≈ 359 µM) | > 100 | 25 (≈ 89.8 µM) | 50 (≈ 180 µM) | –
N=C(N)c1cccc(OCCCCOc2cccc(C(=N)N)c2)c1 [Compound 16] | – | – | 12.5 (≈ 38.3 µM) | 25 (≈ 76.6 µM) | 25 (≈ 76.6 µM) | – | 25 (≈ 76.6 µM)
N=C(N)c1ccc(OCCCOc2ccc(-c3nc4ccc(C(=N)N)cc4[nH]3)cc2)cc1 [Compound 64] | – | – | 0.39 (≈ 0.91 µM) | 0.78 (≈ 1.82 µM) | 0.19 (≈ 0.443 µM) | 0.78 (≈ 1.82 µM) | –

Reference: US6326395A, “Antifungal activity of dicationic molecules” (priority 1999, dated 2001)
